Reference: ChEMBL document CHEMBL1201862, “PubChem BioAssay data set” (2004)
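Compound exposure: 48 hours, 5 concentrations, 96-well plates. GI50: concentration for 50% inhibition of growth.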 Calls of active or inactive are those of the source. Rule as the data show it: active = GI50 up to about 1.1 µM and inactive = higher.

Experiments:
Assay in all cases: NCI-60 cell line screen, 48 h
M19-MEL = tested on: M19-MEL
UACC-62 = tested on: UACC-62
EKVX = tested on: EKVX
HCC 2998 = tested on: HCC 2998
A549 = tested on: A549
SF-295 = tested on: SF-295
OVCAR-4 = tested on: OVCAR-4
A498 = tested on: A498
NCI-H460 = tested on: NCI-H460
NCI-H226 = tested on: NCI-H226
NCI-H23 = tested on: NCI-H23
LXFL 529 = tested on: LXFL 529
DLD-1 = tested on: DLD-1
RXF 631 = tested on: RXF 631
ACHN = tested on: ACHN
HOP-62 = tested on: HOP-62
CAKI-1 = tested on: CAKI-1
KM-20L2 = tested on: KM-20L2
RXF 393 = tested on: RXF 393
LOX IMVI = tested on: LOX IMVI
SNB-19 = tested on: SNB-19
KM12 = tested on: KM12
RPMI-8226 = tested on: RPMI-8226
DMS-273 = tested on: DMS-273
OVCAR-3 = tested on: OVCAR-3
OVCAR-5 = tested on: OVCAR-5
HL-60 = tested on: HL-60
786-0 = tested on: 786-0
TK-10 = tested on: TK-10
OVCAR-8 = tested on: OVCAR-8
UO-31 = tested on: UO-31
SNB-78 = tested on: SNB-78
HOP-18 = tested on: HOP-18
SW-620 = tested on: SW-620
NCI-H522 = tested on: NCI-H522
SN12C = tested on: SN12C
SF-539 = tested on: SF-539
SF-268 = tested on: SF-268
COLO 205 = tested on: COLO 205
HCT-116 = tested on: HCT-116
K562 = tested on: K562
UACC-257 = tested on: UACC-257
DMS-114 = tested on: DMS-114
SK-OV-3 = tested on: SK-OV-3
MOLT-4 = tested on: MOLT-4
SK-MEL-28 = tested on: SK-MEL-28
CCRF-CEM = tested on: CCRF-CEM
SR = tested on: SR
M14 = tested on: M14
HOP-92 = tested on: HOP-92
HCT-15 = tested on: HCT-15
SNB-75 = tested on: SNB-75
U-251 = tested on: U-251
HT-29 = tested on: HT-29
IGROV-1 = tested on: IGROV-1
Malme-3M = tested on: Malme-3M
SK-MEL-2 = tested on: SK-MEL-2
XF498 = tested on: XF498
SK-MEL-5 = tested on: SK-MEL-5

Cc1c(C(=O)/C=C/c2ccc(Cl)cc2)[n+]([O-])c2ccccc2[n+]1[O-]
GI50 (M19-MEL): 15.2 µM (inactive) | GI50 (UACC-62): 12.6 µM (inactive) | GI50 (EKVX): 15.6 µM (inactive) | GI50 (HCC 2998): 11.8 µM (inactive) | GI50 (A549): 12.4 µM (inactive) | GI50 (SF-295): 12.2 µM (inactive) | GI50 (OVCAR-4): 10.5 µM (inactive) | GI50 (A498): 14.2 µM (inactive) | GI50 (NCI-H460): 11.3 µM (inactive) | GI50 (NCI-H226): 16.4 µM (inactive) | GI50 (NCI-H23): 10.4 µM (inactive) | GI50 (LXFL 529): 9.08 µM (inactive) | GI50 (DLD-1): 7.94 µM (inactive) | GI50 (RXF 631): 34.5 µM (inactive) | GI50 (ACHN): 14.7 µM (inactive) | GI50 (HOP-62): 26.5 µM (inactive) | GI50 (CAKI-1): 9.2 µM (inactive) | GI50 (KM-20L2): 7.11 µM (inactive) | GI50 (RXF 393): 4.18 µM (inactive) | GI50 (LOX IMVI): 7.28 µM (inactive) | GI50 (SNB-19): 14.4 µM (inactive) | GI50 (KM12): 10.8 µM (inactive) | GI50 (RPMI-8226): 11.1 µM (inactive) | GI50 (DMS-273): 7.64 µM (inactive) | GI50 (OVCAR-3): 12.5 µM (inactive) | GI50 (OVCAR-5): 15 µM (inactive) | GI50 (HL-60): 5.92 µM (inactive) | GI50 (786-0): 12.6 µM (inactive) | GI50 (TK-10): 18.2 µM (inactive) | GI50 (OVCAR-8): 11.2 µM (inactive) | GI50 (UO-31): 16.1 µM (inactive) | GI50 (SNB-78): 22.1 µM (inactive) | GI50 (HOP-18): 20.6 µM (inactive) | GI50 (SW-620): 8.69 µM (inactive) | GI50 (NCI-H522): 3.78 µM (inactive) | GI50 (SN12C): 7.1 µM (inactive) | GI50 (SF-539): 12.1 µM (inactive) | GI50 (SF-268): 14.7 µM (inactive) | GI50 (COLO 205): 14.1 µM (inactive) | GI50 (HCT-116): 5.93 µM (inactive) | GI50 (K562): 4.6 µM (inactive) | GI50 (UACC-257): 15.8 µM (inactive) | GI50 (DMS-114): 4.1 µM (inactive) | GI50 (SK-OV-3): 21.2 µM (inactive) | GI50 (MOLT-4): 13.8 µM (inactive) | GI50 (SK-MEL-28): 17 µM (inactive) | GI50 (CCRF-CEM): 5.57 µM (inactive) | GI50 (SR): 19.3 µM (inactive) | GI50 (M14): 15.6 µM (inactive) | GI50 (HOP-92): 15 µM (inactive) | GI50 (HCT-15): 9.23 µM | GI50 (SNB-75): 15.3 µM (inactive) | GI50 (U-251): 12.9 µM (inactive) | GI50 (HT-29): 12.9 µM (inactive) | GI50 (IGROV-1): 11.8 µM (inactive) | GI50 (Malme-3M): 19.6 µM (inactive)

CC1(C)OC(=O)C(=C2CCC(C(=O)Nc3cccc(C(F)(F)F)c3)N2)C(=O)O1 (stereo not drawn)
GI50 (M19-MEL): 60.8 µM (inactive) | GI50 (UACC-62): 45.2 µM (inactive) | GI50 (EKVX): 50.6 µM (inactive) | GI50 (HCC 2998): 43.7 µM (inactive) | GI50 (A549): > 100 µM (inactive) | GI50 (SF-295): 75.5 µM (inactive) | GI50 (OVCAR-4): 61.4 µM (inactive) | GI50 (A498): 66.1 µM (inactive) | GI50 (NCI-H460): 62.5 µM (inactive) | GI50 (NCI-H226): 91 µM (inactive) | GI50 (SK-MEL-2): > 100 µM (inactive) | GI50 (NCI-H23): > 100 µM (inactive) | GI50 (LXFL 529): 39.6 µM (inactive) | GI50 (DLD-1): > 100 µM (inactive) | GI50 (ACHN): 50.2 µM (inactive) | GI50 (HOP-62): > 100 µM (inactive) | GI50 (CAKI-1): 9.77 µM (inactive) | GI50 (KM-20L2): 68.4 µM (inactive) | GI50 (RXF 393): 84.1 µM (inactive) | GI50 (LOX IMVI): 60.4 µM (inactive) | GI50 (SNB-19): 41.2 µM (inactive) | GI50 (KM12): 60.3 µM (inactive) | GI50 (RPMI-8226): 51.2 µM (inactive) | GI50 (DMS-273): > 100 µM (inactive) | GI50 (OVCAR-3): 82 µM (inactive) | GI50 (OVCAR-5): > 100 µM (inactive) | GI50 (HL-60): 67.8 µM (inactive) | GI50 (786-0): > 100 µM (inactive) | GI50 (TK-10): 86.9 µM (inactive) | GI50 (OVCAR-8): > 100 µM (inactive) | GI50 (UO-31): > 100 µM (inactive) | GI50 (SNB-78): 87.7 µM (inactive) | GI50 (HOP-18): > 100 µM (inactive) | GI50 (SW-620): > 100 µM (inactive) | GI50 (NCI-H522): 39.8 µM (inactive) | GI50 (SN12C): > 100 µM (inactive) | GI50 (SF-539): > 100 µM (inactive) | GI50 (SF-268): > 100 µM (inactive) | GI50 (COLO 205): > 100 µM (inactive) | GI50 (XF498): 31.3 µM (inactive) | GI50 (HCT-116): > 100 µM (inactive) | GI50 (K562): 33.4 µM (inactive) | GI50 (UACC-257): 40.3 µM (inactive) | GI50 (DMS-114): 37.4 µM (inactive) | GI50 (SK-OV-3): > 100 µM (inactive) | GI50 (MOLT-4): 26.7 µM (inactive) | GI50 (SK-MEL-28): 97.7 µM (inactive) | GI50 (CCRF-CEM): 44.8 µM (inactive) | GI50 (M14): 64 µM (inactive) | GI50 (HOP-92): 56.2 µM (inactive) | GI50 (HCT-15): > 100 µM | GI50 (SK-MEL-5): 30.1 µM (inactive) | GI50 (SNB-75): > 100 µM (inactive) | GI50 (U-251): > 100 µM (inactive) | GI50 (HT-29): 75.7 µM (inactive) | GI50 (IGROV-1): > 100 µM (inactive) | GI50 (Malme-3M): 50.1 µM (inactive)
